In patent US8536167B2, “Methods for treating ophthalmic, otic, or nasal infections” (Alcon Research, Ltd., priority 2009, dated 2013):
≈ marks a conversion by molar mass, not a printed value. Where two headings read alike, the source gives them in different places.

Assays:
[1] = Ocular pharmacokinetic study following topical administration; assay type: in vivo, New Zealand white rabbits
Experimental: FIGS. 3 and 4 present the results of ocular pharmacokinetic studies following topical administration of finafloxacin and ciprofloxacin compositions. The studies utilized New Zealand white rabbits, and 45 μl of 0.3% test composition was instilled bilaterally.

Enterococcus faecalis = test: In vitro antimicrobial susceptibility test (MIC50); assay type: cell-based
Experimental: (§1) A finafloxacin composition at pH 5.8 was compared to ciprofloxacin (pH 5.8) and ofloxacin (pH 5.8 and pH 7) compositions using standard in vitro antimicrobial susceptibility tests (M07-08 Methods for Dilution Antimicrobial Susceptibility Tests for Bacteria that Grow Aerobically; Approved Standard-Eighth Edition (January 2009, Clinical and Laboratory Standards Institute), herein incorporated by reference). Minimum inhibitory concentrations (MIC50) were determined using Gram-positive and Gram-negative test organisms commonly found in otic and ophthalmic infections. The MIC50 was the lowest concentration of antibiotic that prevented growth of the test organism, as determined visually by a lack of turbidity.
(§2) The results of the experiment are presented below in TABLE 1 (Gram-positive organisms) and TABLE 2 (Gram-negative organisms).

[2] = system: Staphylococcus aureus - Ciprofloxacin resistant; test: In vitro antimicrobial susceptibility test (MIC50); assay type: cell-based
Experimental: as §1, §2

Escherichia coli = test: In vitro antimicrobial susceptibility test (MIC50); assay type: cell-based
Experimental: as §1, §2

[3] = system: Staphylococcus epidermidis - Ciprofloxacin sensitive; test: In vitro antimicrobial susceptibility test (MIC50); assay type: cell-based
Experimental: as §1, §2

Proteus mirabilis = test: In vitro antimicrobial susceptibility test (MIC50); assay type: cell-based
Experimental: as §1, §2

Pseudomonas otitidis = test: In vitro antimicrobial susceptibility test (MIC50); assay type: cell-based; conditions: Metapseudomonas otitidis, N = 10
Experimental: as §1, §2

[4] = system: Pseudomonas aeruginosa - Ciprofloxacin sensitive; test: In vitro antimicrobial susceptibility test (MIC50); assay type: cell-based
Experimental: as §1, §2

[5] = system: Pseudomonas aeruginosa - Ciprofloxacin resistant; test: In vitro antimicrobial susceptibility test (MIC50); assay type: cell-based
Experimental: as §1, §2

Streptococcus pneumonia = test: In vitro antimicrobial susceptibility test (MIC50); assay type: cell-based; conditions: Streptococcus pneumoniae, N = 10
Experimental: as §1, §2

[6] = system: Staphylococcus epidermidis - Ciprofloxacin resistant; test: In vitro antimicrobial susceptibility test (MIC50); assay type: cell-based
Experimental: as §1, §2

Haemophilia influenzae = test: In vitro antimicrobial susceptibility test (MIC50); assay type: cell-based; conditions: N = 10
Experimental: as §1, §2

[7] = system: Staphylococcus aureus - Ciprofloxacin sensitive; test: In vitro antimicrobial susceptibility test (MIC50); assay type: cell-based
Experimental: as §1, §2

Pseudomonas aeruginosa [8] = test: Rabbit keratitis model (similar test); assay type: in vivo, New Zealand white rabbits; conditions: finafloxacin compositions compared to CILOXAN
[9] = Ex vivo corneal perfusion model; assay type: in vitro ADME; conditions: 0.1 mM test solutions at pH 7.3, ex vivo, FIG. 2
Experimental: FIG. 2 presents comparative corneal perfusion data for several quinolone antimicrobials (including finafloxacin) using an ex vivo model. 0.1 mM test solutions at pH 7.3 of four quinolone antimicrobials were compared in the model.

[10] = In vivo ototoxicity study, outer ear irritation; parameters: species or system Rabbit; conditions: 0.3% pH 5.7, 0.3%, 0.6%, 1.0% pH 7.5 (0.3% Mg and BAC), 0.2 mL bid for 7 days followed by 7 day observations
Text: TABLE 3 below presents the results of toxicity testing performed in two animals models (chinchilla and rabbit).

Pseudomonas aeruginosa [11] = test: Guinea pig model of acute otitis externa (AOE); assay type: in vivo; conditions: for eradication of Pseudomonas: 0.3% composition
Experimental: Guinea pig ears were slightly abraded and 200 μl of bacterial culture (10^8 CFU) of P. aeruginosa were instilled into each ear. Ears were lavaged with saline and plated onto Pseudomonas isolation media. FIGS. 1a-1d summarize the results of these studies. […] Lower concentration finafloxacin compositions (0.03% and 0.003%) still achieved very substantial 5-6 log reductions of Pseudomonas in the model. […] Using a lower concentration composition (0.03%, shown in FIG. 1c) finafloxacin achieved a 4 log CFU reduction in the single dose study.

[12] = at pH 5.8, N = 10, read-out: MIC50

| Compound | MIC50 (Enterococcus faecalis; at pH 5.8, N = 10) [µg/mL] | MIC50 ([2]; at pH 5.8, N = 12) [µg/mL] | MIC50 (Escherichia coli; at pH 5.8, N = 10) [µg/mL] | MIC50 ([3]; at pH 5.8, N = 8) [µg/mL] | MIC50 (Proteus mirabilis; [12]) [µg/mL] | MIC50 (Pseudomonas otitidis; at pH 5.8) [µg/mL] | MIC50 ([4]; at pH 5.8, N = 14) [µg/mL] | MIC50 ([5]; at pH 5.8, N = 11) [µg/mL] | MIC50 (Streptococcus pneumonia; at pH 5.8) [µg/mL] | MIC50 ([6]; at pH 5.8, N = 12) [µg/mL] | MIC50 (Haemophilia influenzae; at pH 5.8) [µg/mL] | MIC50 ([7]; at pH 5.8, N = 8) [µg/mL] | also measured |
| --- | --- | --- | --- | --- | --- | --- | --- | --- | --- | --- | --- | --- | --- |
| O=C(O)c1cn(C2CC2)c2cc(N3CCNCC3)c(F)cc2c1=O [Ciprofloxacin] | 128 (≈ 386 µM) | 128 (≈ 386 µM) | 256 (≈ 773 µM) | 0.5 (≈ 1.51 µM) | 0.125 (≈ 0.377 µM) | 0.25 (≈ 0.754 µM) | 1 (≈ 3.02 µM) | 64 (≈ 193 µM) | 1 (≈ 3.02 µM) | 128 (≈ 386 µM) | 0.016 (≈ 0.0483 µM) | 1 (≈ 3.02 µM) | corneal stroma tissue concentration ([1]; 45 μl of 0.3% test composition instilled bilaterally, topical, FIG. 3): greater concentrations immediately following instillation; aqueous humor tissue concentration ([1]; 45 μl of 0.3% test composition instilled bilaterally, topical, FIG. 4): greater concentrations immediately following instillation |
| N#Cc1c(N2C[C@@H]3NCCO[C@H]3C2)c(F)cc2c(=O)c(C(=O)O)cn(C3CC3)c12 [Finafloxacin, 8-cyano-1-cyclopropyl-6-fluoro-7-[(4aS,7aS)-hexahydropyrrolo[3,4-b]-1,4-oxazin-6(2H)-yl]-1,4-dihydro-4-oxo-3-quinolinecarboxylic acid] | 8 (≈ 20.1 µM) | 4 (≈ 10 µM) | 4 (≈ 10 µM) | 0.016 (≈ 0.0402 µM) | 0.25 (≈ 0.628 µM) | 0.125 (≈ 0.314 µM) | 1 (≈ 2.51 µM) | 16 (≈ 40.2 µM) | 0.25 (≈ 0.628 µM) | 2 (≈ 5.02 µM) | 0.008 (≈ 0.0201 µM) | 0.016 (≈ 0.0402 µM) | aqueous humor tissue concentration ([1]; rabbit, in vivo): comparable at later time points; corneal stroma tissue concentration ([1]; rabbit, in vivo): comparable at later time points; Pseudomonas CFU reductions (Pseudomonas aeruginosa [8]): inferior Pseudomonas CFU reductions compared to CILOXAN®; corneal perfusion [9]: better corneal perfusion properties than the ciprofloxacin test composition and demonstrates less perfusion relative to the ofloxacin test composition; outer ear irritation [10]: No indications; outer ear irritation ([10]; listed as finafloxacin): did not demonstrate inner or outer ear irritation; log reductions of Pseudomonas (Pseudomonas aeruginosa [11]; 0.003% composition, two doses, FIG. 1a): 5-6 log; effect of preservative (BAC) on efficacy against Pseudomonas (Pseudomonas aeruginosa [11]; 0.03% and 0.3% compositions with BAC compared to self-preserved compositions, FIG. 1d): does not affect the efficacy; CFU reduction (Pseudomonas aeruginosa [11]; 0.03% composition, single dose study, FIG. 1c): 4 log CFU; log reductions of Pseudomonas (Pseudomonas aeruginosa [11]; 0.03% composition, two doses, FIG. 1a): 5-6 log; performance compared to ciprofloxacin and ofloxacin compositions (Pseudomonas aeruginosa [11]; 0.03%, single dose study, FIG. 1c): performed as well as the ciprofloxacin composition and better than the ofloxacin composition; eradication of Pseudomonas (Pseudomonas aeruginosa [11]; single dose study, FIG. 1b): almost complete eradication of Pseudomonas; eradication of Pseudomonas (Pseudomonas aeruginosa [11]; two separate doses, FIG. 1a): almost complete eradication of Pseudomonas; performance compared to ciprofloxacin (Pseudomonas aeruginosa [11]; tests summarized in FIG. 1a, two doses): performed as well as ciprofloxacin |
| CC1COc2c(N3CCN(C)CC3)c(F)cc3c(=O)c(C(=O)O)cn1c23 (stereo not shown) [Ofloxacin] | 16 (≈ 44.3 µM) | 64 (≈ 177 µM) | 512 (≈ 1420 µM) | 1 (≈ 2.77 µM) | 0.5 (≈ 1.38 µM) | 1 (≈ 2.77 µM) | 4 (≈ 11.1 µM) | 256 (≈ 708 µM) | 2 (≈ 5.53 µM) | 32 (≈ 88.6 µM) | 0.031 (≈ 0.0858 µM) | 1 (≈ 2.77 µM) | MIC50 (Enterococcus faecalis; at pH 7, N = 10): 128 µg/mL (≈ 354 µM); MIC50 ([2]; at pH 7, N = 12): 32 µg/mL (≈ 88.6 µM); MIC50 (Escherichia coli; at pH 7, N = 10): 16 µg/mL (≈ 44.3 µM); MIC50 ([3]; at pH 7, N = 8): 0.25 µg/mL (≈ 0.692 µM); MIC50 (Proteus mirabilis; pH 7): 0.125 µg/mL (≈ 0.346 µM); MIC50 (Pseudomonas otitidis; at pH 7): 0.25 µg/mL (≈ 0.692 µM); MIC50 ([4]; at pH 7, N = 14): 2 µg/mL (≈ 5.53 µM); MIC50 ([5]; at pH 7, N = 11): 64 µg/mL (≈ 177 µM); MIC50 (Streptococcus pneumonia; at pH 7): 1 µg/mL (≈ 2.77 µM); MIC50 ([6]; at pH 7, N = 12): 16 µg/mL (≈ 44.3 µM); MIC50 (Haemophilia influenzae; at pH 7): 0.031 µg/mL (≈ 0.0858 µM); MIC50 ([7]; at pH 7, N = 8): 0.25 µg/mL (≈ 0.692 µM) |
